What was measured:
MC38-Ova tumors = assay: MC38-Ova tumor growth after adoptive transfer of inhibitor-pretreated OT-I cells; format: in vivo; conditions: OT-I cells transiently treated with inhibitor during activation, transferred into tumor-bearing mice; FIG. 3
Method: Naïve OT-I CD8^+ T cells were activated with anti-CD3/CD28 in the presence or absence of Arid1a inhibitor for 48 hours followed by expansion for another 4 days. Data are representative of two independent experiments. Data are shown as mean±s.e.m. **p<0.01; two-way ANOVA.
In Vivo Tumor Transplant Experiment. For B16-Ova and MC38-Ova tumors, 0.5×10^6 tumor cells were injected subcutaneously into naïve mice (7-10 weeks of age). OT-I cells (2×10^6) were transferred i.v. 7 days after tumor injection. Tumors were measured every two days.
Effective adoptive T cell therapy for cancer is critically dependent upon the use of T cells with long-term memory potential (Lugli et al. (2020) Trends Immunol. 41:17-28; Gattinoni et al. (2012) Nat. Rev. Cancer 12:671-684; Klebanoff et al. (2005) Proc. Natl. Acad. Sci. USA 102:9571-9576; Hurton et al. (2016) Proc. Natl. Acad. Sci. USA 113: E7788-E7797). Therefore, it was determined whether manipulation of CBAF can improve anti-tumor therapy. Accordingly, OT-I cells were transduced with sgRNA for Smarcd2 or control sgRNA, and the transduced cells were transferred into animals that were subsequently infected with Lm-Ova. Animals were then inoculated with B16F10 murine melanoma cells expressing Ova (B16-Ova) at memory phase (day >30 post-infection). Improved control of tumor growth and enhanced survival by the Smarcd2-ablated CD8^+ T cells were observed. […]

human CD8^+ T cells = assay: Differentiation of activated human naive CD8+ T cells in vitro (TCM, TSCM, TEM markers); format: cell-based; conditions: treatment during the first 48 hours; anti-CD3/CD28, culture in IL-15 or IL-2; FIG. 8
Method: Naïve human CD8^+ T cells were activated with anti-CD3/CD28 and cultured with IL-15; Arid1a inhibitor was added at the indicated time point (n=6 per group). Data are compiled from at least two independent experiments. Data are representative of two independent experiments. Data shown are as mean±s.e.m. *p<0.05, **p<0.01, ***p<0.001; one-way ANOVA.
Human Naïve CD8^+ T Cell Isolation and Stimulation. Human naive CD8^+ T cells were isolated from apheresis ring obtained from the St. Jude blood donor center. Peripheral blood mononuclear cells (PBMC) were isolated using a density gradient medium sold under the tradename LYMPHOPREP® (StemCell Inc.) following the manufacturer's protocol. Briefly, blood from apheresis ring was mixed with phosphate-buffered saline (PBS) containing 2% fetal bovine serum in 1:1 ratio. The mixture was then layered carefully on a density gradient medium sold under the tradename LYMPHOPREP®. Samples were centrifuged at 4000 rpm for 30 minutes at room temperature without braking. The PBMC layer was aspirated, washed twice with 2% fetal calf serum/PBS before isolation of naïve CD8^+ T cell using the MojoSort Human CD8^+ Naïve T Cell Isolation Kit (Biolegend). Naïve CD8^+ T cells were then stimulated with human T cell activation and expansion reagent sold under the tradename IMMUNOCULT® Human CD3/CD28 T Cell Activator (StemCell Inc.) plus 50 U/ml rhIL-2 or 10 ng/ml rhIL-15 for 2 days and expanded with 50 U/ml rhIL-2 or 10 ng/ml rhIL-15. BRD-K98645985 (1 μM; AOBIOUS or MedChemExpress) was added at the indicated time points. All human studies were in compliance with the Declaration of Helsinki. Blood donors were recruited by the Blood Donor Center at St. Jude Children's Research Hospital. Blood donors provided written consent for research use of their blood products not used in transfusions, which has been reviewed and approved by the Institutional Review Board at St. Jude Children's Research Hospital.
The effect of the Arid1a inhibitor on the differentiation of activated, human CD8^+ T cells was also analyzed. […] After 30 days, T cells were recovered and analyzed.

CO[C@H]1CN(C)C(=O)c2cc(NC(=O)NC(C)C)ccc2OC[C@H](C)N(Cc2ccc(-c3ccccn3)cc2)C[C@@H]1C [BRD-K98645985]
control of MC38-Ova tumor growth in vivo by transferred OT-I cells (MC38-Ova tumors): improved the ability of OT-I cells to control
generation of cells with markers of T memory stem cells (TSCM, CD45RA^+CCR7^+CD27^+CD95^+) (human CD8^+ T cells): necessary and sufficient to promote the generation
generation of cells with markers of TCM (CD45RA-CCR7+) (human CD8^+ T cells): necessary and sufficient to promote the generation of cells with markers of TCM
numbers of cells with markers of effector memory T cells (TEM, CD45RA^+CCR7^−) (human CD8^+ T cells): reduced numbers of cells with markers of effector memory T cells

— patent US20250223552A1, “METHOD FOR PREPARING T CELLS FOR ADOPTIVE T CELL THERAPY” (ST. JUDE CHILDREN'S RESEARCH HOSPITAL, INC., priority 2022, published 2025)
